Source: patent publication EP0511152A2, “Quinoxaline compounds, their preparation and use” (NOVO NORDISK A/S, priority 1991, dated 1992)
Values after ≈ are worked out from the molar mass of the structure shown.

What was measured:
[1] = test system: quisqualic acid stimulated spreading depression in chicken retina; assay: Spreading depression (Test 2); format: cell-based; conditions: Gallus gallus; concentration producing 50% maximal inhibition of quisqualic acid stimulated spreading depression; chick retina, quisqualate 1 µg/ml, 26°C
Description: (§1) The pharmacological properties of the compounds of the present invention can be illustrated by determining their capability for displacing radioactively labelled 2-amino3-hydroxy-5-methyl-4-isoxazolepropionic acid (AMPA) from the AMPA type receptors.
The antagonism is measured by determining the IC₅₀ value which represents the concentration which produces a 50% maximal inhibition of quisqualic acid stimulated spreading depression in chicken retina.
Spreading depression (Test 2)
Chicks (3-10 days old) were decapitated, the eyes enucleated and sectioned along the equatorial plane. After removal of the anterior chamber and the vitreous body, the posterior chamber of each eye was placed in a small petri dish containing a physiological saline solution (P.S.S.) of the following composition (mM) NaCl (100), KCl (6.0), CaCl₂ (1.0), MgS0₄ (1.0), NaHCO₃ (30), NaH₂PO₄ (1.0), glucose (20).
The solution was saturated with 100% O₂ and maintained at 26°C.
The eyes are initially incubated in normal P.S.S. for 15-30 min. and then transferred to P.S.S. containing KCl (20 mM), NMDLA (30 µg/ml), quisqualate (1 µg/ml), kainate (1 µg/ml), or glycin (200 µg/ml). In these "stimulating solutions" S.D.s start spontaneously usually from the edge of the retina, and can be easily observed by eye. The time taken for an S.D. to start in each eye is measured.
After a further 15 minutes of incubation in normal P.S.S. the eyes are transferred to normal P.S.S. containing the test compound and incubated for 15 minutes. Thereafter the eyes are transferred to a "stimulating solution" containing the same concentration of the test compound. The time taken for an S.D. to start in each eye is again measured. The eyes are then placed back in normal P.S.S. and after 15 minutes the time taken for S.D. to start is again measured, in order to assess the degree of recovery from any drug effects.
An increase in the time taken for S.D. to start of 30 seconds more than the control time is considered 100% inhibition of S.D. The drug effects therefore are expressed as the percentage maximum response obtained for a given dose. The test value can be quoted therefore as the concentration (µg/ml) of test substance which produces a 50% maximal inhibition (IC₅₀).

AMPA type receptors = assay: ³H-AMPA binding (Test 1); conditions: displacement of 50% of specific binding of ³H-AMPA (5 nM); rat cerebral cortical membrane homogenate, 0°C, 30 min
Description: as §1
The displacement activity of the compounds may be shown by determining the IC₅₀ value which represents the concentration (µg/ml) which causes a displacement of 50% of the specific binding of ³H-AMPA.
500 µl of thawed rat cerebral cortical membrane homogenate in Tris-HCl (30 mM), CaCl₂ (2.5 mM) and KSCN (1OO mM) pH 7.1 were incubated at 0°C for 30 min. with 25 µl ³H-AMPA (5 nM final concentration) and the test compound and buffer. Nonspecific binding was determined by incubation with L-glutamic acid (600 µM final concentration). The binding reaction was terminated by adding 5 ml of ice-cold buffer followed by filtration through Whatman GF/C glass fibre filters and 2x5 ml wash with ice-cold buffer. Bound radioactivity was measured by scintillation counting. IC₅₀ was determined by Hill analysis of at least four concentrations of test compound.

SMILES | IC50 [1] [µg/mL] | Test 1 IC50 (AMPA type receptors) [µg/mL]
NC(=O)CNS(=O)(=O)c1ccc2c(c1)c([N+](=O)[O-])cc1[nH]c(=O)c(=O)[nH]c12 [Example 21, 8-Carbamoylmethylsulfamoyl-6-nitrobenzo[f]quinoxaline-2,3(1H,4H)-dione] | 1 (≈ 2.54 µM) | 0.16
NC(=O)c1ccc2c(c1)c([N+](=O)[O-])cc1[nH]c(=O)c(=O)[nH]c12 [Example 14, 8-Carbamoyl-6-nitrobenzo[f]quinoxaline-2,3(1H,4H)-dione] | 0.41 (≈ 1.37 µM) | 0.07
O=c1[nH]c2cc([N+](=O)[O-])c3c(C(F)(F)F)cccc3c2[nH]c1=O [Example 8, 6-Nitro-7-trifluoromethylbenzo[f]quinoxaline-2,3-(1H,4H)-dione] | 1.3 (≈ 4 µM) | 0.55
N#Cc1cc2[nH]c(=O)c(=O)[nH]c2c2ccc(S(N)(=O)=O)cc12 [Example 11, 6-Cyano-8-sulfamoylbenzo[f]quinoxaline-2,3(1H,4H)-dione] | 0.54 (≈ 1.71 µM) | 0.17
